Test results: patent US6172205A, “Synthetic process toward total synthesis of eleutherobin and its analogues and uses thereof” (The Trustees of Columbia in the City of New York, priority 1998, dated 2001)
“And” between values parts separate entries of the source, which are not always exact repeats. Equal values may be shown once. “Also recorded” adds a separate entry of the source. Read-outs that look alike come from different tables or passages of the source.

Assays:
[1] = test system: Human non-small cell lung carcinoma cells, A549; experiment: Cytotoxicity by counting cells after 72 h, Taxol-sensitive cells; type: cell-based; settings: for IC50: Homo sapiens
Description: Taxol-resistant and sensitive cell lines were seeded into 12-well plates at a density of 5×10^4 cells per well and allowed a period of 12 h for attachment prior to treatment. […] Cells were then trypsinized and counted (Coulter counter model ZF0031, Coulter Corp., Miami, Fla.).

[2] = test system: A549-T12 (Taxol-resistant A549); experiment: Cytotoxicity by counting cells after 72 h, Taxol-resistant cells; type: cell-based, human; settings: for fold resistance relative to the parental cell line: A549-T12 vs A549, 4320 min; for IC50: Homo sapiens, Lung Carcinoma A549, Resistant (A549-T12), 72 h, mean of at least three independent experiments; for cross-resistance in A549-T12 (in words): Taxol-resistant, not expressing P-glycoprotein
Description: (§1) Human non-small cell lung carcinoma cells, A549, were maintained in RPMI 1640 containing 10% fetal bovine serum and 1% penicillin-streptomycin (Gibco Laboratories, Grand Island N.Y.) at 37° C. in 7% CO2. The Taxol-resistant cell line A549-T12 was selected for resistance to Taxol and maintained in a final concentration of 12 nM drug (21). Human ovarian carcinoma cells SKOV3 and the MDR variant SKVBL (obtained from Dr. V. Ling) were maintained in α-mem plus ribonucleotides, deoxynucleotides, 15% fetal bovine serum and 1% penicillin-streptomycin (Gibco Laboratories) at 37° C. in 5% CO2. SKVBL cells were maintained in […] vinblastine (Sigma Chemical Co.).
(§2) Taxol-resistant and sensitive cell lines were seeded into 12-well plates at a density of 5×10^4 cells per well and allowed a period of 12 h for attachment prior to treatment. Cells were exposed to 10-fold serial dilutions of each compound (10^-10 to 10^-6 M) for 72 h. Cells were then trypsinized and counted (Coulter counter model ZF0031, Coulter Corp., Miami, Fla.). The IC50 was determined by plotting cell number against log of the drug concentration and this was used to determine the concentration of compound resulting in 50% growth inhibition compared to untreated cells. Each cell line was assayed in a minimum of 3 independent experiments with each compound and the results expressed as the mean IC50.
(§3) The cytotoxic efficacy of eleutherobin and its derivatives (FIG. 6) was evaluated in two drug sensitive human cancer cell lines and their Taxol-resistant counterparts. The results are summarized in Table I in order of decreasing potency. […] The Taxol-resistant cell line SKVBL overexpresses high levels of P-glycoprotein (22). […] The only difference between the two agents is the enantiomeric relationship in the carbohydrate (2'-acetylarabinose) sector (FIG. 6). […] This cell line expressed high levels of MDR1 resulting in Taxol-resistance equal or greater than 1666 -fold compared to the Taxol-sensitive SKOV3 cell line.
(§4) ^a Cytotoxicity determined by counting cells after 72 h drug exposure.

[3] = test system: Human ovarian carcinoma cells SKOV3; experiment: Cytotoxicity by counting cells after 72 h, Taxol-sensitive cells; type: cell-based
Description: as §1, §2, §4

[4] = test system: SKVBL (MDR variant of SKOV3); experiment: Cytotoxicity by counting cells after 72 h, MDR variant cells; type: cell-based, human; settings: for IC50: Homo sapiens, SK-OV-3, Ovarian Carcinoma SKOV3, Resistant (SKVBL), 72 h, mean of at least three independent experiments; for fold resistance relative to the parental cell line: SKVBL vs SKOV3; for cross-resistance in SKVBL (in words): MDR1 expressing cells, high P-glycoprotein
Description: as §1, §2, §3, §4

microtubule protein = experiment: Stability of microtubules against Ca++-induced depolymerization; type: biochemical, calf; settings: 10 mM CaCl2
Description: (§5) Eleutherobin and its derivatives were synthesized as described (18,19). Taxol was obtained from the Drug Development Branch, National Cancer Institute (Bethesda, Md.). All compounds were dissolved in dimethyl sulfoxide (Sigma Chemical Co., St. Louis, Mo.) at stock concentrations of 5 mM and stored at -20° C. All control samples contained an equal volume of DMSO. GTP was obtained from Sigma Chemical Co. And dissolved in sterile distilled water at a concentration of 10 mM and stored at -20° C. Microtubule protein was purified from calf brains by two cycles of temperature-dependent assembly and disassembly (20) and stored in liquid nitrogen prior to use. The anti-mouse β-tubulin monoclonal antibody T-4026 was obtained from Sigma Chemical Co.
(§6) The ability of each compound to polymerize tubulin was evaluated by recording the change in turbidity of microtubule protein at 350 nm for 80 min in a spectrophotometer (UVIKON, Research Instruments Int., SD, Calif.). One mg of purified microtubule protein was diluted in assembly buffer containing 0.1 M MES, 1 mM EGTA, 0.5 mM MgCl2 and 3 M glycerol, pH 6.6. All compounds were evaluated at a concentration of 10 μM at 37° C. GTP was used at a final concentration of 1 mM. Microtubule stability was assessed by the addition of 10 mM Ca^++. changes from t=0-10 min were used to calculate initial slopes from the linear portion of each curve. These values were used to calculate the activity of each compound (relative to the activity of Taxol which was assigned a value of 100%).
The ability of each compound to polymerize and/or stabilize microtubules was assessed (FIG. 7). To investigate whether eleutherobin and its derivatives shared the microtubule stabilizing properties of Taxol, 10 mM CaCl2 was added to each sample after maximum microtubule polymerization occurred, and the effects on turbidity recorded spectrophotometrically. A positive control was included in which 1 mM GTP was used to confirm the ability of GTP-stabilized microtubules to undergo Ca^++ induced depolymerization.
The ability of this compound to stabilize microtubules formed in the presence of GTP was examined. After a period of 15 min, 10 mM Ca^++ was added and the change in turbidity recorded.

[5] = test system: cellular microtubules, NIH 3T3 cells; experiment: Microtubule bundle formation by immunofluorescence; type: cell-based; settings: 2 μM, 5.5 h; for microtubule bundle formation (in words): 37 °C
Description: FIG. 9 immunofluorescence images NIH3T3 cells labeled with β-tubulin antibody following exposure to different drugs. A)DMSO; B)2 μM Taxol; C)2 μM eleutherobin; D)2 μM neo-eleutherobin; E)2 μM SKBII.294; F)2 μM SKBIII.13.
Illustrates the effects of eleutherobin and its derivatives on the morphology of cellular microtubules following exposure of cells to 2 μM of each compound for 5.5 h at 37° C. […] The number of micotic asters correlated with the extent of microtubule bundling in interphase cells.
(§7) NIH 3T3 cells were grown to subconfluency on glass converslips in 35 mm plastic petri dishes. Cells were exposed to 2 μM of Taxol and each of the experimental compounds for 5.5 h at 37° C., rinsed twice in PBS and extracted with 0.5% Triton-X-100 in microtubule stabilizing buffer (PEM) (100 mM PIPES, 2 mM EGTA and 2 mM MgCl2, pH 6.8) for 4 min. Following a wash in PEM, the cells were fixed for 40 min at room temperature in 3% formaldehyde in PEM followed by incubation in 0.1 M glycine in PBS for 10 min and washing (four times) in PEM containing 5 μM EGTA. Following blocking in 20% normal goat serum (NGS) for 30 min at room temperature, cells were incubated for 1 h at 37° C. with a 1:100 dilution of β-tubulin mAb diluted in 10% NGS, washed twice in 1% BSA, once in PBS and three times in 1% BSA. Cells were then incubated in a 1:200 dilution of the secondary fluorophore antibody, IndocarbocyanineCY3 (Jackson Immunoresearch Laboratories Inc., Pa.) in 20% NGS for 20 min at room temperature. Finally cells were washed three times in 1% BSA and the dried slides mounted in 30% glycerol in PBS containing […]-phenylene diamine (1 mg/ml). Fixed slides were examined using a Zeiss Axioskop microscope.

P-glycoprotein = P-glycoprotein substrate behaviour inferred from resistance of SKVBL cells; type: cell-based, human
Description: as §1, §2, §3

[6] = test system: tubulin / microtubule protein; experiment: Tubulin polymerization by turbidity at 350 nm in the absence of GTP; type: biochemical, calf; settings: 10 μM; for tubulin polymerization (in words): 37 °C, absence of GTP
Description: as §5
as §6, with “GTP was used at a final concentration of 1 mM.” left out
The polymerization activity of these compounds was also assessed by determining the slope of the linear portion of each curve at A350 nm (t=0-10 min), and expressing this relative to Taxol (which was assigned a value of 100% (FIG. 8). The order of activity of eleutherobin and derivatives using this method, corroborates the results obtained from cytotoxicity studies.

[7] = Overall biological activity, all parameters tested
Description: as §2, §6, §7

[8] = Solubility compared to eleutherobin; type: physicochemical
[9] = sensitive cell lines (A549, SKOV3)

For CC(=O)O[C@H]1C(=O)[C@@]2(C)[C@H]([C@H](OC(=O)c3ccccc3)[C@]3(O)C[C@H](OC(=O)[C@H](O)[C@@H](NC(=O)c4ccccc4)c4ccccc4)C(C)=C1C3(C)C)[C@]1(OC(C)=O)CO[C@@H]1C[C@@H]2O [Taxol, reference compound], the IC50 ([1]; A549, 72 h) was 2 nM, the “fold resistance relative to the parental cell line” value [2] was 7 fold and 7.1 fold and the IC50 [2] was 14.2 nM. The IC50 ([3]; SK-OV-3, 72 h) was 3 nM, the IC50 [4] was over 5000 nM and the “fold resistance relative to the parental cell line” value [4] was at least 1666 fold. For the same compound, the “stabilization against Ca++-induced depolymerization (in words)” value (shortened to “stabilization”) (microtubule protein) was “stabilized microtubules against Ca^++ -induced depolymerization”, the “microtubule bundle formation (in words)” value [5] was “identical to that seen in Taxol-treated cells” and the “P-glycoprotein substrate (in words)” value (P-glycoprotein) was “excellent substrates for P-glycoprotein”.

For CO[C@]12C=C[C@](C)(O1)[C@@H](O)C[C@H]1C(C)=CC[C@H](C(C)C)[C@H]1C=C2CO[C@@H]1OC[C@@H](O)[C@@H](O)[C@@H]1O [SKBIII.13], the IC50 ([1]; Lung Carcinoma A549, Sensitive, 72 h, mean of at least three independent experiments, read-out: IC50) was 4150 nM, the “cytotoxicity (in words)” value [1, 9] was “its cytotoxicity is greatly reduced” and the IC50 ([3]; SK-OV-3, Ovarian Carcinoma SKOV3, Sensitive, 72 h, mean of at least three independent experiments, read-out: IC50) was over 5000 nM. For the same compound, the “tubulin polymerization (in words)” value [6] was “inactive in tubulin polymerization assays”, the “tubulin polymerization (in words)” value ([6]; listed as SKBII.13) was “forfeited the ability to polymerize microtubules” and the “stabilization” value (microtubule protein) was “unable to stabilize GTP-polymerized microtubules against Ca^++ induced depolymerization”. For the same compound, the “microtubule bundle formation (in words)” value [5] was “a fine microtubule network without bundle formation”, the “biological activity (in words)” value [7] was “basically inactive by all parameters tested” and the “biological activity (in words)” value ([7]; listed as SKBII.13) was “biologically inactive”.

With CO[C@]12C=C[C@](C)(O1)[C@@H](OC(=O)/C=C/c1cn(C)cn1)C[C@H]1C(C)=CC[C@H](C(C)C)[C@H]1C=C2CO[C@H]1OC[C@H](O)[C@H](O)[C@H]1OC(C)=O [Neo-Eleutherobin] the IC50 ([1]; A549, 72 h) was 125 nM, the “fold less active / less cytotoxic than eleutherobin” value [1, 9] was 20 fold and 14-20 fold and the “fold resistance relative to the parental cell line” value [2] was 1.2 fold. For the same compound, the IC50 [2] was 146 nM, the “cross-resistance in A549-T12 (in words)” value [2] was “neither eleutherobin nor neo-eleutherobin displayed cross-resistance; also recorded: neither of these compounds showed cross-resistance” and the IC50 ([3]; SK-OV-3, 72 h) was 134 nM. The IC50 [4] was over 1000 nM, the “cross-resistance in SKVBL (in words)” value [4] was “exhibited cross-resistance in an MDR1 expressing cell line; also recorded: demonstrated cross-resistance” and the “microtubule polymerization activity relative to eleutherobin” value [6] was 69%. The “stabilization” value (microtubule protein) was “the microtubules formed also resisted Ca^++ -induced depolymerization”, the “microtubule bundle formation (in words)” value [5] was “the extent of bundling was reduced” and the “multiple asters in mitotic cells” value ([5]; data not shown) was “also seen in eleutherobin and neo-eleutherobin-treated cells”. The “P-glycoprotein substrate (in words)” value (P-glycoprotein) was “excellent substrates for P-glycoprotein” and the “biological activity (in words)” value [7] was “less active than eleutherobin in all of the parameters examined”.

For CO[C@]12C=C[C@@H]3[C@@H](C(C)C)CC=C(C)[C@@H]3C[C@H](OC(=O)/C=C/c3cn(C)cn3)[C@](C)(C=C1)O2 [SKBII.296], the IC50 ([1]; A549, 72 h) was 400 nM, the “cytotoxicity (in words)” value [1, 9] was “less cytotoxic than either eleutherobin or neo-eleutherobin” and the “fold resistance relative to the parental cell line” value [2] was 10 fold. For the same compound, the IC50 [2] was 4000 nM, the “cross-resistance in A549-T12 (in words)” value [2] was “considerable cross-resistance” and the IC50 ([3]; SK-OV-3, 72 h) was 1630 nM. The IC50 [4] was 1350 nM, the “cross-resistance in SKVBL (in words)” value [4] was “no cross resistance to SKVBL cells” and the “fold resistance relative to the parental cell line” value [4] was 0.8 fold. For the same compound, the “microtubule polymerization activity relative to eleutherobin” value [6] was 54%, the “microtubule bundle formation (in words)” value [5] was “reduced bundle formation in cultured cells; also recorded: induced less bundle formation than neo-eleutherobin” and the “solubility (in words)” value [8] was “reduced solubility compared to eleutherobin”. For the same compound, the “P-glycoprotein substrate (in words)” value (P-glycoprotein) was “considerably less attractive for P-glycoprotein compared to eleutherobin and neo-eleutherobin”.
